The values that follow come from patent US7964349B2, “Method to determine responsiveness of cancer to epidermal growth factor receptor targeting treatments” (The General Hospital Corporation, priority 2004, dated 2011).

In data set [1] the test system is non-small cell lung cancer (NSCLC). Conditions: cited from earlier work.
Data set [2] shares this test system.
Protocol: A significant clinical response was defined either as a partial response using RECIST criteria for patients with measurable disease, or for patients whose tumor burden could not be quantified using these criteria, an evaluable response was assessed by two physicians.
Data set [3] concerns Lung cancer cells harboring EGFR mutations vs cells with wild-type receptor. Description: Apoptosis / cell viability (MTT) assay with increasing drug concentrations. It counts as cell-based, human. Conditions: compared with cells expressing only wild-type EGFR. On the procedure:
10,000 cells were seeded into individual wells of a 96-well plate. […] After 96 hours, the viability of cells was determined using the MTT assay. For caspase immunostaining, 10,000 cells were seeded onto 10 mm coverslips. The next day they were transfected with siRNA (see previous section for details). After 72 hours the cells were fixed in 4% paraformaldehyde at room temperature for 10 min. They were subsequently permeabilized for 5 min in 0.5% Triton X-100 and blocked for 1 hr in 5% normal goat serum (NGS). […] The next day the coverslips were washed 3 times in PBS and incubated for 1 hour with secondary antibody (goat anti-rabbit Texas-red conjugated; from Jackson Immunoresearch; West Grove, Pa.) at a 1:250 dilution in 5% normal goat serum and 0.5 μg/ml of DAPI (4′,6-Diamidino-2-phenylindole). After 3 washes in PBS the coverslips were mounted with ProLong Gold anti-fade reagent from Molecular Probes (Eugene, Oreg.).
10 μl of 5 mg/ml MTT (Thiazolyl blue; Sigma) solution was added to each well of a 96-well plate. After 2 hours of incubation at 37° C., the medium was removed and the MTT was solubilized by the addition of 100 μl of acidic isopropanol (0.1N HCL) to each well. The absorbance was determined spectophotometrically at 570 nm.

Another data set concerns advanced NSCLC. Description: Randomized trial of carboplatin/paclitaxel with or without erlotinib in advanced NSCLC. It counts as in vivo, human.
[4] abbreviates: multi-institutional phase II trial.
[5] abbreviates: single patients 1-9, one per line.

Where “and” joins values, the source holds several entries; their conditions need not be identical. Equal values may be shown once. Entries after “also recorded” stand apart in the source; their conditions may differ.

Protocol for advanced NSCLC: Tumor specimens were analyzed from patients with advanced NSCLC treated on the randomized trial of carboplatin/paclitaxel with or without erlotinib.

With `COc1cc2ncnc(Nc3ccc(F)c(Cl)c3)c2cc1OCCCN1CCOCC1` [Gefitinib], the “patients with dramatic clinical responses” value in data set [1] (chemotherapy-refractory NSCLC) was “approximately 10%”. In addition, in data set [1] (generally believed consequence of EGFR inhibition in normal tissues), the “side effects of treatment” value is “diarrhea and dermatitis”. In data set [1] (setting [4]), the “response rate, Japanese patients” value is reported as 27.5% and the “response rate, predominantly European-derived population” value is recorded as 10.4%. The “patients identified as having significant clinical responses” value in data set [2] (of a total of 275 patients treated) was 25 patients. Moreover, in data set [2] (setting [5]), the “Overall Survival, from the beginning of gefitinib treatment to death” value is >14.0 mo and 12.9 mo and >21.4 mo and >7.8 mo and >4.3 mo and 17.9 mo and 18.8 mo; the Response entry is recorded as “Major; Improved bilateral; also recorded: Partial; improved lung; also recorded: Minor; improved pleural; also recorded: Partial; improved liver; also recorded: Major; improved lung”. In data set [2] (the 9 responder patients of Table 1), the “median survival from the start of drug treatment” value is recorded as > 18 months.
`N.N.[Cl][Pt][Cl]` [cisplatin]: the “resistance of EGFR-mutant lung cancer cells to induced cell death signals” value in data set [3] is listed as “markedly increased resistance”.
Same read-out and setting: under `COc1cccc2c1C(=O)c1c(O)c3c(c(O)c1C2=O)C[C@@](O)(C(=O)CO)C[C@@H]3O[C@H]1C[C@H](N)[C@H](O)[C@H](C)O1` [doxorubicin] stands “markedly increased resistance”.
In the case of `C#Cc1cccc(Nc2ncnc3cc(OCCOC)c(OCCOC)cc23)c1` [erlotinib], the “survival in the two treatment arms” value with advanced NSCLC was “equivalent survival”.
For the compound Fas-ligand, in data set [3], the “resistance of EGFR-mutant lung cancer cells to induced cell death signals” value was “markedly increased resistance”.
